Data as given in US20060069132A1, “Azolecarboxamide herbicides” (priority 2004, published 2006).
Like-named read-outs stand apart in the source and are kept apart here.

Assays:
velvetleaf [1] = experiment: Test A pre-/postemergence herbicide test; type: in vivo, Abutilon theophrasti; conditions: for pest or weed control at 500 g/ha / pest or weed control at 2000 g/ha: Abutilon theophrasti, 240 h
Summary of the method: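 Visual injury rating on a 0–100 scale (0 no effect, 100 complete control) versus untreated controls, about ten days after treatment in greenhouse. Pre: directed soil spray onto seeded sandy loam. Post: spray to runoff on plants 2–10 cm tall at one- to two-leaf stage.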

corn [2] = experiment: Test B pre-/postemergence herbicide test; type: in vivo, Zea mays; conditions: for plant injury at 125 g/ha / plant injury at 500 g/ha / Corn plant response rating (crop injury, 0 = no effect, 100 = complete kill) at 500 g/ha: Zea mays
Summary of the method: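 Greenhouse pot assay with simultaneous preemergence (treated seed) and postemergence (2–18 cm seedlings) applications of surfactant-containing, non-phytotoxic solvent formulations. Response scored visually 13–15 days later on a 0–100 scale, 100 meaning complete control.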

ducksalad = experiment: Test B flooded paddy test; type: in vivo, Heteranthera limosa; conditions: 1000 g ai/ha, scale 0 to 100 (0 no effect, 100 complete control); for pest or weed control at 1000 g/ha: Heteranthera limosa, 336 h, read-out: Ducksalad plant response rating
Summary of the method: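 Treated at 2-leaf (paddy) or 1–4-leaf, 2–18 cm (postemergence); greenhouse 13–15 d; visual score vs control, 0 none to 100 complete control; dash = not tested.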

cocklebur = experiment: Test C pre-/postemergence herbicide test; type: in vivo, Xanthium strumarium; conditions: for pest or weed control at 62 g/ha / pest or weed control at 125 g/ha / pest or weed control at 250 g/ha / pest or weed control at 500 g/ha: Xanthium strumarium, pre-emergence, 312 h; for pest or weed control at 62 g/ha / Plant response rating, Cocklebur: preemergence; for pest or weed control at 62 g/ha / pest or weed control at 125 g/ha / pest or weed control at 250 g/ha: read-out: Plant response rating, Cocklebur; for pest or weed control at 500 g/ha: Preemergence, 500 g ai/ha, scale 0 to 100, 0 no effect, 100 complete control, read-out: Cocklebur plant response rating
Summary of the method: (§1)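 Pre- and postemergence application, solvent/surfactant formulation; post at 1- to 4-leaf stage (2–18 cm). Greenhouse 12–14 d. Visual rating vs controls, 0 = no effect, 100 = complete control.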

corn [3] = experiment: Test C pre-/postemergence herbicide test; type: in vivo, Zea mays; conditions: for Corn plant response rating (crop injury, 0 = no effect, 100 = complete kill) at 62 g/ha / Corn plant response rating (crop injury, 0 = no effect, 100 = complete kill) at 125 g/ha / Corn plant response rating (crop injury, 0 = no effect, 100 = complete kill) at 250 g/ha / Corn plant response rating (crop injury, 0 = no effect, 100 = complete kill) at 500 g/ha: Zea mays, pre-emergence, 312 h; for Corn plant response rating (crop injury, 0 = no effect, 100 = complete kill) at 62 g/ha / Plant response rating, Corn: preemergence; for Corn plant response rating (crop injury, 0 = no effect, 100 = complete kill) at 500 g/ha: 500 g ai/ha, scale 0 to 100 (0 no effect, 100 complete control)
Summary of the method: as §1

giant foxtail = experiment: Test C pre-/postemergence herbicide test; type: in vivo, Setaria faberi; conditions: for pest or weed control at 62 g/ha / pest or weed control at 125 g/ha / pest or weed control at 250 g/ha / pest or weed control at 500 g/ha: Setaria faberi, pre-emergence, 312 h, read-out: Plant response rating, Foxtail, Giant; for pest or weed control at 62 g/ha / Plant response rating, Foxtail, Giant: preemergence; for pest or weed control at 500 g/ha: 500 g ai/ha, scale 0 to 100 (0 no effect, 100 complete control)
Summary of the method: as §1

kochia = experiment: Test C pre-/postemergence herbicide test; type: in vivo, Kochia scoparia; conditions: for pest or weed control at 62 g/ha / pest or weed control at 125 g/ha / pest or weed control at 250 g/ha / pest or weed control at 500 g/ha: Bassia scoparia, pre-emergence, read-out: Plant response rating, Kochia; for pest or weed control at 62 g/ha / Plant response rating, Kochia: preemergence; for pest or weed control at 500 g/ha: 500 g ai/ha, scale 0 to 100 (0 no effect, 100 complete control)
Summary of the method: as §1

velvetleaf [4] = experiment: Test C pre-/postemergence herbicide test; type: in vivo, Abutilon theophrasti; conditions: for pest or weed control at 62 g/ha / pest or weed control at 250 g/ha / pest or weed control at 500 g/ha: Abutilon theophrasti, pre-emergence, read-out: Plant response rating, Velvetleaf; for pest or weed control at 62 g/ha / Plant response rating, Velvetleaf: preemergence; for pest or weed control at 500 g/ha: 500 g ai/ha, scale 0 to 100 (0 no effect, 100 complete control), visual, 12 to 14 days
Summary of the method: as §1

[5] = post-emergence, Postemergence, 500 g ai/ha, 0 to 100 scale, 0 no effect, 100 complete control, read-out: Velvetleaf plant response rating
[6] = post-emergence, Postemergence, 2000 g ai/ha, 0 to 100 scale, 0 no effect, 100 complete control, read-out: Plant response rating, Velvetleaf
[7] = pre-emergence, Preemergence, 2000 g ai/ha, visual rating, 0 to 100 scale (0 no effect, 100 complete control), read-out: Velvetleaf plant response rating
[8] = pre-emergence, preemergence, 500 g ai/ha, visual injury, 0 to 100 scale (0 no effect, 100 complete control), read-out: Velvetleaf plant response rating
[9] = post-emergence, postemergence, 125 g ai/ha, visual rating, scale 0 (no effect) to 100 (complete control), read-out: Corn plant response rating
[10] = pre-emergence, 125 g ai/ha, 0 = no effect, 100 = complete control, read-out: Corn plant response rating (0 to 100 scale)
[11] = pre-emergence, 500 g ai/ha, visual rating, 0 = no effect, 100 = complete control
[12] = 125 g ai/ha, scale 0 (no effect) to 100 (complete control), visual, 12 to 14 days

CCc1nn(C(C)(C)C)cc1C(=O)Nc1cc(C(=O)N(C)C)ccc1F [Compound 222, N-[5-[(dimethylamino)carbonyl]-2-fluorophenyl]-1-(1,1-dimethylethyl)-3-ethyl-1H-pyrazole-4-carboxamide]
pest or weed control at 500 g/ha (velvetleaf [1]; [5]): 80% | pest or weed control at 2000 g/ha (velvetleaf [1]; [6]): 100% | pest or weed control at 2000 g/ha (velvetleaf [1]; [7]): 100% | pest or weed control at 500 g/ha (velvetleaf [1]; [8]): 95% | plant injury at 125 g/ha (corn [2]; [9]): 0% | plant injury at 500 g/ha (corn [2]; post-emergence, postemergence, 500 g ai/ha, visual rating, scale 0 (no effect) to 100 (complete control), read-out: Corn plant response rating): 20% | plant injury at 125 g/ha (corn [2]; [10]): 60% | Corn plant response rating (crop injury, 0 = no effect, 100 = complete kill) at 500 g/ha (corn [2]; [11]): 90% | pest or weed control at 1000 g/ha (ducksalad; visual rating, 13 to 15 days): 80% | pest or weed control at 62 g/ha (cocklebur; 62 g ai/ha, scale 0 to 100): 0% | pest or weed control at 125 g/ha (cocklebur; [12]): 20% | pest or weed control at 250 g/ha (cocklebur; 250 g ai/ha, scale 0-100): 70% | pest or weed control at 500 g/ha (cocklebur): 100% | Corn plant response rating (crop injury, 0 = no effect, 100 = complete kill) at 62 g/ha (corn [3]; 62 g ai/ha, scale 0 to 100): 0% | Corn plant response rating (crop injury, 0 = no effect, 100 = complete kill) at 125 g/ha (corn [3]; [12]): 20% | Corn plant response rating (crop injury, 0 = no effect, 100 = complete kill) at 250 g/ha (corn [3]; 250 g ai/ha, scale 0-100): 60% | Corn plant response rating (crop injury, 0 = no effect, 100 = complete kill) at 500 g/ha (corn [3]; visual, 12 to 14 days): 100% | pest or weed control at 62 g/ha (giant foxtail; 62 g ai/ha, scale 0 to 100): 20% | pest or weed control at 125 g/ha (giant foxtail; [12]): 85% | pest or weed control at 250 g/ha (giant foxtail; 250 g ai/ha, scale 0-100): 95% | pest or weed control at 500 g/ha (giant foxtail; visual, 12 to 14 days): 100% | pest or weed control at 62 g/ha (kochia; 62 g ai/ha, scale 0 to 100): 90% | pest or weed control at 125 g/ha (kochia; [12]): 100% | pest or weed control at 250 g/ha (kochia; 250 g ai/ha, scale 0-100): 100% | pest or weed control at 500 g/ha (kochia; visual, 12 to 14 days): 100% | pest or weed control at 62 g/ha (velvetleaf [4]; 62 g ai/ha, scale 0 to 100): 50% | pest or weed control at 250 g/ha (velvetleaf [4]; 250 g ai/ha, scale 0-100): 100% | pest or weed control at 500 g/ha (velvetleaf [4]): 100%

CCN1N=C(C(C)(C)C)CC1C(=O)Nc1cc(C(=O)N(C)C)ccc1F (stereo not shown) [Compound 268, N-[5-[(dimethylamino)carbonyl]-2-fluorophenyl]-3-(1,1-dimethylethyl)-1-ethyl-4,5-dihydro-1H-pyrazole-5-carboxamide]
pest or weed control at 500 g/ha (velvetleaf [1]; [5]): 45% | pest or weed control at 2000 g/ha (velvetleaf [1]; [6]): 45% | pest or weed control at 2000 g/ha (velvetleaf [1]; [7]): 100% | pest or weed control at 500 g/ha (velvetleaf [1]; [8]): 95% | plant injury at 125 g/ha (corn [2]; [9]): 20% | plant injury at 500 g/ha (corn [2]; post-emergence, postemergence, 500 g ai/ha, scale 0 to 100, 0 is no effect, 100 is complete control, read-out: Corn plant response rating): 30% | plant injury at 125 g/ha (corn [2]; [10]): 80% | Corn plant response rating (crop injury, 0 = no effect, 100 = complete kill) at 500 g/ha (corn [2]; [11]): 90% | pest or weed control at 1000 g/ha (ducksalad): 90% | pest or weed control at 62 g/ha (cocklebur; 62 g ai/ha, scale 0 to 100): 10% | pest or weed control at 125 g/ha (cocklebur; [12]): 60% | pest or weed control at 250 g/ha (cocklebur; 250 g ai/ha, scale 0-100): 70% | pest or weed control at 500 g/ha (cocklebur): 85% | Corn plant response rating (crop injury, 0 = no effect, 100 = complete kill) at 62 g/ha (corn [3]; 62 g ai/ha, scale 0 to 100): 10% | Corn plant response rating (crop injury, 0 = no effect, 100 = complete kill) at 125 g/ha (corn [3]; [12]): 45% | Corn plant response rating (crop injury, 0 = no effect, 100 = complete kill) at 250 g/ha (corn [3]; 250 g ai/ha, scale 0-100): 60% | Corn plant response rating (crop injury, 0 = no effect, 100 = complete kill) at 500 g/ha (corn [3]; visual, 12 to 14 days): 70% | pest or weed control at 62 g/ha (giant foxtail; 62 g ai/ha, scale 0 to 100): 80% | pest or weed control at 125 g/ha (giant foxtail; [12]): 95% | pest or weed control at 250 g/ha (giant foxtail; 250 g ai/ha, scale 0-100): 95% | pest or weed control at 500 g/ha (giant foxtail; visual, 12 to 14 days): 100% | pest or weed control at 62 g/ha (kochia; 62 g ai/ha, scale 0 to 100): 100% | pest or weed control at 125 g/ha (kochia; [12]): 100% | pest or weed control at 250 g/ha (kochia; 250 g ai/ha, scale 0-100): 100% | pest or weed control at 500 g/ha (kochia; visual, 12 to 14 days): 100% | pest or weed control at 62 g/ha (velvetleaf [4]; 62 g ai/ha, scale 0 to 100): 60% | pest or weed control at 250 g/ha (velvetleaf [4]; 250 g ai/ha, scale 0-100): 100% | pest or weed control at 500 g/ha (velvetleaf [4]): 100%

CCNC(=O)c1ccc(F)c(NC(=O)c2cc(C3(C)CC3)nn2CC)c1 [Compound 300]
Velvetleaf plant response rating (velvetleaf [1]; Postemergence, 500 g ai/ha, 0 to 100 scale, 0 no effect, 100 complete control): 60 | Plant response rating, Velvetleaf (velvetleaf [1]; Postemergence, 2000 g ai/ha, 0 to 100 scale, 0 no effect, 100 complete control): 80 | Velvetleaf plant response rating (velvetleaf [1]; Preemergence, 2000 g ai/ha, visual rating, 0 to 100 scale (0 no effect, 100 complete control)): 100 | Velvetleaf plant response rating (velvetleaf [1]; preemergence, 500 g ai/ha, visual injury, 0 to 100 scale (0 no effect, 100 complete control)): 85 | Corn plant response rating (0 to 100 scale) (corn [2]; 125 g ai/ha, 0 = no effect, 100 = complete control, preemergence): 0 | Corn plant response rating (corn [2]; 125 g ai/ha, visual rating, scale 0 (no effect) to 100 (complete control), postemergence): 30 | Plant response rating, Corn (corn [2]; 500 g ai/ha, visual rating, 0 = no effect, 100 = complete control, preemergence): 70 | Corn plant response rating (corn [2]; postemergence, 500 g ai/ha, scale 0 to 100, 0 is no effect, 100 is complete control): 30 | Ducksalad plant response rating (ducksalad): 90 | Plant response rating, Cocklebur (cocklebur; 62 g ai/ha, scale 0 to 100): 5 | Plant response rating, Cocklebur (cocklebur; [12]): 5 | Plant response rating, Cocklebur (cocklebur; 250 g ai/ha, scale 0-100): 5 | Plant response rating, Corn (corn [3]; 62 g ai/ha, scale 0 to 100): 30 | Plant response rating, Corn (corn [3]; [12]): 30 | Plant response rating, Corn (corn [3]; 250 g ai/ha, scale 0-100): 35 | Plant response rating, Foxtail, Giant (giant foxtail; 62 g ai/ha, scale 0 to 100): 30 | Plant response rating, Foxtail, Giant (giant foxtail; [12]): 65 | Plant response rating, Foxtail, Giant (giant foxtail; 250 g ai/ha, scale 0-100): 100 | Plant response rating, Kochia (kochia; 62 g ai/ha, scale 0 to 100): 60 | Plant response rating, Kochia (kochia; [12]): 100 | Plant response rating, Kochia (kochia; 250 g ai/ha, scale 0-100): 100 | Plant response rating, Velvetleaf (velvetleaf [4]; 62 g ai/ha, scale 0 to 100): 5 | Plant response rating, Velvetleaf (velvetleaf [4]; 250 g ai/ha, scale 0-100): 5
